Drawing on ChEMBL document CHEMBL5727895, “Nitrogen-containing heteroaryl compound and pharmaceutical use thereof” (2020), this text covers IC50 for 13 compounds.

By IC50 is commonly meant the concentration needed to halve the response being measured.

The nature of the experiment: Evaluation of GLUT9 Inhibitory Activity: Uricase/Hyper transiently-transfected human GLUT9 stably expressing cells or mock cells (blank) were seeded in a 96 well plate (Corning) at 1.6×10^5 cells/well, and cultured overnight at 37° C., 5% CO2. D-MEM/high glucose (Wako Pure Chemical Industries, Ltd.) containing 10% Fetal Bovine Serum (Lifetechnology) and 100 units/ml penicillin/100 μg/ml streptomycin (GIBCO) was used as a medium. High K− buffer (129.8 mM KCl, 1.2 mM KH2PO4, 1.2 mM MgSO4.7H2O, 1.3 mM CaCl2. 2H2O, 25 mM HEPES, pH 7.4 with 1 M Tris) and the medium were mixed in equal amount to prepare Assay Buffer. The medium in each well was removed, and the test compound solution (final 1% DMSO) diluted with Assay Buffer was added thereto at 50 μl/well, and the mixture was left stand at room temperature for 30 to 60 min. For the solvent control and blank, Assay Buffer containing DMSO alone was added at 50 μl/well, and the mixture was left stand at room temperature for 30 to 60 min. In addition, uric acid solution (containing [14C]uric acid as a tracer) diluted with Assay Buffer was added to each well at 15 μl/well (final 300 μM uric acid), and the uptake reaction was performed at room temperature for 6 min. After the completion of the reaction, the cells were washed three times with ice-cooled Wash Buffer (Hank's Balanced Salt Solution containing 0.01% Bovine Serum Albumin) at 150 μl/well, and 0.1N aqueous NaOH solution was added thereto at 25 μl/well to dissolve the cell. MicroScint-20 (Perkin-Elmer) was added thereto at 150 μl/well, the plate was shaked, and CPM of [14C] was measured by TopCount NXT (Perkin-Elmer).Data was obtained by deducting average of CPM in blank well from average of CPM in each treated well. The inhibitory rate of the test compound in each concentration was calculated from the following formula: [(A−B)/A]×100, A is data of solvent control, B is data of test compound treatment.
Regarding `COc1ccc(-c2ncc(CC3CCC3)cc2-c2ccc(C(=O)O)cc2)cc1`, the IC50 was 192 nM.

With `CCCCc1cnc(-c2cc(F)c(OC)c(F)c2)c(-c2ccc(C(=O)O)cc2)c1`, the IC50 is 57.8 nM.

On to `CCCCCc1cnc(-c2ccc(OC)cc2)c(-c2ccc(C(=O)O)cc2)c1`, for which the concentration for half-maximal inhibition (IC50) is 50.6 nM.

Turning to `CCCc1cnc(-c2cc(F)c(OC)c(F)c2)c(-c2ccc(C(=O)O)cc2)c1`, the 50% inhibitory concentration (IC50) was 72 nM.

For the compound `COc1ccc(-c2ncc(CC3CCCC3)cc2-c2ccc(C(=O)O)cc2)cc1`, the IC50 is 842 nM.

For the compound `CCCCc1cnc(-c2ccc(OC)cc2)c(-c2ccc(C(=O)O)cc2)n1`, the IC50 is 141 nM.

In the case of `CCCCc1cnc(-c2ccc(OC)c(F)c2)c(-c2ccc(C(=O)O)cc2)c1`, the IC50 is 89.2 nM.

On to `COCCCCc1cnc(-c2ccc(C(F)(F)F)cc2)c(-c2ccc(C(=O)O)cc2)n1`, for which the IC50 was 158 nM.

Take `CCCCc1cnc(-c2ccc(OC)cc2)c(-c2ccc(C(=O)O)cc2)c1F`: the IC50 is 83.7 nM.

With `COCCCc1cnc(-c2ccc(OC)cc2)c(-c2ccc(CCC(=O)O)cc2)n1`, the IC50 is 91.8 nM.

Turning to `CCCCc1cnc(-c2ccc(CC)c(C)c2)c(-c2ccc(C(=O)O)cc2)n1`, the IC50 is 150 nM.

`CCCCc1cnc(-c2ccc(C)cc2)c(-c2ccc(C(=O)O)cc2)c1`: the IC50 was 340 nM.

Turning to `CCCc1cnc(-c2ccc(OC)cc2)c(-c2ccc(C(=O)O)cc2)c1`, the IC50 was 89 nM.
